# Tests used:
# [1] = test system: TGFβ1-induced expression of α-SMA protein in human intestinal fibroblasts (InMyoFib); assay: α-SMA ELISA in TGFβ1-activated human intestinal myofibroblasts; format: cell-based; conditions: TGFβ1 3 ng/ml, 48 h
# Protocol: Cpd.5 was added to serum-deprived intestinal fibroblasts (InMyoFib) 1 hour before the activation with TGFβ1 (3 ng/ml). After 48 hours of incubation, the expression of α-SMA was measured by ELISA. The obtained values were transformed into percentage inhibition over TGFβ1 control. Data are presented as mean (triplicates)±standard deviation (SD). Statistical analyses were performed by one-way ANOVA followed by Bonferroni post-hoc tests, using Sigma Plot 11.0 software. [*: p<0.05; **: p<0.01; ***: p<0.001 (comparison versus TGFβ1 3 ng/mL group)].
# The Human Intestinal Myofibroblast (InMyoFib) (Lonza) were cultured in Smooth Muscle Cell Basal Medium (SmBM-2 TM) (Lonza cat #CC-3181) that was supplemented with SmGMTM-2 BulletKit TM (Lonza cat #CC-4149). The complete medium contains 5% fetal bovine serum. For the activation experiments with TGFβ1, the inMyoFib were plated at a density of 10×10^3 cells per well in 96-well plates. The next day, cell-culture medium was removed, and cells were washed with PBS (Invitrogen cat #14190). InMyoFib were deprived for 24 hours in serum-free, insulin-free and rhFGF-B-free medium. […]
# The level of α-SMA was measured using a Sandwich ELISA. […]
# [2] = test system: TGFβ1-induced expression of COL1A1 protein in human HSC; assay: Col1α1 ELISA on supernatants of TGFβ1-activated human HSC; format: cell-based; conditions: 48 h
# Protocol: The human primary hepatic stellate cells (hHSC) (Innoprot) were cultured in STeCM medium (ScienCell cat #5301) that was supplemented with 2% fetal bovine serum (FBS, ScienCell cat #0010), 1% penicillin/streptomycin (ScienCell cat #0503) and stellate cell growth supplement (SteCGS; ScienCell cat #5352). Cell culture flasks were coated with Poly-L Lysine (Sigma cat #P4707) for a better adherence.
# The human primary hepatic stellate cells (hHSC) (Innoprot) were cultured under standard conditions, as described above. The cells were subsequently plated at a density of 2×10^4cells/well or 6,5×10^3 cells/well into 96-well or 384-well plates respectively. The next day, cell-culture medium was removed, and cells were washed with PBS (Invitrogen cat #14190). Then, hHSC were deprived for 24 hours in serum-free and SteCGS-free medium. For the treatments with compounds of formula (I), the serum-deprived hHSC were preincubated for 1 hour with the compounds followed by addition of the profibrogenic stimuli TGFβ1 (PeproTech cat #100-21, 1 ng/mL) in serum-free and SteCGS-free medium for an additional 48 hour period. At the end of treatment, the cell culture supernatants of treated-HSC were transferred into a new plate before storage at −20° C.The cells were washed with PBS (Invitrogen, cat #14190) before the addition of lysis buffer (CelLytic™ MT reagent; Sigma #C3228). Plates were then incubated for 30 min on ice using a plate shaker, before storage at −20° C.
# The level of the human pro-Collagen α1 (col1α1) was measured using a Sandwich ELISA (R&D systems,). Briefly, the wells of an ELISA plate were first coated with the capture antibody at room temperature overnight. After 3 washes in PBS +0.05% Tween 20, a blocking solution consisting of PBS +1% BSA was added for one hour followed by another washing cycle. […]
# Serum-deprived HSC were preincubated for 1 hour with RM-5061 before the activation with the profibrogenic cytokine TGFβ1 (1 ng/ml). After 48 hours of incubation, the cellular α-SMA content as well as secreted COL1A1 were measured by ELISA. […]
SMILES,effect on TGFβ1-induced α-SMA in human intestinal fibroblasts [1],effect on COL1A1 in human HSC ([2]; TGFβ1 1 ng/ml),"IC50 ([2]; secreted COL1A1, TGFβ1 1 ng/ml) [nM]","Max % I Over TGFβ, COL1A1 ([2]; secreted COL1A1, TGFβ1 1 ng/ml) [%]"
"[2H]C([2H])([2H])C(=O)Oc1ccccc1C(=O)Nc1ncc([N+](=O)[O-])s1 [Cpd.5, 2-[(5-nitro-1,3-thiazol-2-yl)carbamoyl]phenyl (d3)ethanoate]",inhibits,–,–,–
"CC(C)(C)[C@H](N)C(=O)Oc1ccccc1C(=O)Nc1ncc([N+](=O)[O-])s1 [RM-5061, (S)-2-(5-nitrothiazol-2-ylcarbamoyl)phenyl 2-amino-3,3-dimethylbutanoate]",–,reduced in a comparable manner,2670,43

# From patent publication US20170290814A1, “METHODS OF TREATMENT OF CHOLESTASIS AND FIBROSIS” (GENFIT, priority 2016, published 2017)
